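Cultured in 96-well plates, cells were exposed to test compound for 48 hours across five concentrations. Here, GI50 denotes the concentration required for 50% inhibition of growth.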 Activity calls are given as the source filed them. No stated cut-off is given here; in the data, active = GI50 up to about 1.1 µM and inactive = higher. Where only a bound is given, the exact number is not on record here.

Test systems include LOX IMVI; SNB-75; SNB-19; TK-10; OVCAR-3; MDA-N; M14; SK-MEL-2; HCT-15; SF-268; NCI-H522; DU-145; NCI-H460; A498; NCI-H23; K562; HCC 2998; CCRF-CEM; A549; SR.
Experiment in all cases: growth of human tumour cells (NCI), 48 h

As for `CCCCC(C#N)(OP1(=O)OC(c2ccccc2)C(C)N1C)c1ccccc1` (stereo not given), the GI50 in the assay with LOX IMVI is 18.9 µM (inactive); in the assay with SNB-75, 18.2 µM (inactive); with SNB-19, 19.2 µM (inactive); in the assay on TK-10, 18.9 µM (inactive); in the assay with OVCAR-3 it was 16.6 µM (inactive); in the assay with MDA-N, 16.4 µM (inactive). Moreover, the GI50 was 20.7 µM (inactive) in the assay with M14; 19.2 µM (inactive) with SK-MEL-2; 20.3 µM in the assay with HCT-15; 17.4 µM (inactive) in the assay on SF-268; 17.2 µM (inactive) in the assay on NCI-H522; 19.7 µM (inactive) in the assay with DU-145. In addition, the GI50 with NCI-H460 was 16.1 µM (inactive); with A498, 18.9 µM (inactive); in the assay with NCI-H23 it was 19.7 µM (inactive); in the assay with K562, 19 µM (inactive); in the assay on HCC 2998, 15.1 µM (inactive); in the assay with CCRF-CEM it was 20.3 µM (inactive). Further, the GI50 with A549 was 20.1 µM (inactive); in the assay with SR, 19.9 µM (inactive).

`c1ccc(/C(=N\Nc2nc3ccccc3[nH]2)c2ccccn2)cc1`: the GI50 with LOX IMVI was 0.516 µM (active); with SNB-75, 0.531 µM (active); in the assay on SNB-19 it was 1.22 µM (inactive); in the assay with TK-10, 0.314 µM (active); with OVCAR-3 it was 0.169 µM (active); in the assay with MDA-N, 0.762 µM (active). Moreover, the GI50 with M14 is 0.361 µM (active); in the assay with SK-MEL-2 it was 4.09 µM (inactive); in the assay with HCT-15, 0.277 µM; in the assay with SF-268, 0.443 µM (active); with NCI-H522, 0.25 µM (active); with DU-145, 2.13 µM (inactive). In addition, the GI50 in the assay with NCI-H460 was 0.617 µM (active); in the assay with A498 it was 0.916 µM (active); in the assay on NCI-H23, 0.381 µM (active); in the assay on K562, 0.222 µM (active); with HCC 2998, 1.73 µM (inactive); with CCRF-CEM, 0.0959 µM (active). Further, the GI50 with A549 is 0.596 µM (active); in the assay with SR, 0.348 µM (active).

In the case of `COC(=O)C(Cc1ccccc1)NP(=O)(O)OCC1OC(n2cc(F)c(=O)[nH]c2=O)CC1O` (stereo not given), the GI50 in the assay on LOX IMVI is 3.21 µM (inactive); in the assay with SNB-75, > 31.9 µM (inactive); with SNB-19 it was 3.34 µM (inactive); with TK-10, > 100 µM (inactive); in the assay on OVCAR-3, > 100 µM (inactive); in the assay with MDA-N it was > 69 µM (inactive). Also, the GI50 in the assay on M14 was 21.3 µM (inactive); in the assay with SK-MEL-2, > 100 µM (inactive); with HCT-15, above 100 µM; in the assay on SF-268, 1.75 µM (inactive); with NCI-H522 it was > 100 µM (inactive); in the assay on DU-145, 9.79 µM (inactive). The GI50 with NCI-H460 was 0.236 µM (active); in the assay with A498, 7.38 µM (inactive); in the assay on NCI-H23, 10.9 µM (inactive); in the assay on K562 it was 65.3 µM (inactive); in the assay with HCC 2998, 2.39 µM (inactive); with CCRF-CEM, 1.1 µM (active). For the same compound, the GI50 with A549 was 0.955 µM (active); in the assay with SR it was 2.54 µM (inactive).

Regarding `O=c1ccc2cc(O)c(O)cc2o1` [ESCULETIN], the GI50 with LOX IMVI, in the assay on SNB-75, with SNB-19, in the assay with TK-10, with OVCAR-3 and in the assay on MDA-N was > 100 µM (inactive) in each case. Also, the GI50 was > 100 µM (inactive) in the assay on M14; > 100 µM (inactive) in the assay with SK-MEL-2; above 100 µM in the assay with HCT-15; > 100 µM (inactive) in the assay with SF-268; > 100 µM (inactive) in the assay with NCI-H522; > 100 µM (inactive) in the assay on DU-145. For the same compound, the GI50 in the assay on NCI-H460, with A498, with NCI-H23, in the assay with K562, with HCC 2998 and in the assay with CCRF-CEM was > 100 µM (inactive) in each case. Moreover, the GI50 in the assay on A549 and with SR was > 100 µM (inactive) throughout.

(Values after ChEMBL document CHEMBL1201862, “PubChem BioAssay data set” (2004).)
